From the NIST ThermoML archive (doi:10.1016/j.jct.2016.10.024)
Numbers after ± are expanded uncertainties.

Test: mn = molality of the nth substance listed, in mol/kg
Details: 75 kPa, Liquid, Buoyancy - hydrostatic balance with magnetic suspension - one sinker

CCC(N)=O [propanamide] + O
Details | mass density [kg/m3]
275.66 K, m1 = 0.09705 | 1000.26 ± 0.32
275.66 K, m1 = 0.18 | 1000.53 ± 0.32
275.66 K, m1 = 0.2822 | 1000.89 ± 0.32
275.66 K, m1 = 0.3869 | 1001.24 ± 0.32
275.66 K, m1 = 0.4939 | 1001.62 ± 0.33
275.66 K, m1 = 0.5946 | 1002 ± 0.33
275.66 K, m1 = 0.702 | 1002.4 ± 0.33
275.66 K, m1 = 0.8002 | 1002.77 ± 0.33
276.14 K, m1 = 0.1006 | 1000.29 ± 0.32
276.14 K, m1 = 0.1957 | 1000.6 ± 0.32
276.14 K, m1 = 0.2937 | 1000.93 ± 0.32
276.14 K, m1 = 0.3933 | 1001.26 ± 0.32
276.14 K, m1 = 0.4953 | 1001.62 ± 0.33
276.14 K, m1 = 0.59 | 1001.96 ± 0.33
276.14 K, m1 = 0.7073 | 1002.39 ± 0.33
276.14 K, m1 = 0.799 | 1002.72 ± 0.33
276.61 K, m1 = 0.09735 | 1000.27 ± 0.32
276.61 K, m1 = 0.2018 | 1000.61 ± 0.32
276.61 K, m1 = 0.3001 | 1000.94 ± 0.32
276.61 K, m1 = 0.3875 | 1001.23 ± 0.32
276.61 K, m1 = 0.4999 | 1001.62 ± 0.33
276.61 K, m1 = 0.5929 | 1001.94 ± 0.33
276.61 K, m1 = 0.702 | 1002.32 ± 0.33
276.61 K, m1 = 0.7924 | 1002.63 ± 0.33
277.15 K, m1 = 0.1006 | 1000.29 ± 0.32
277.15 K, m1 = 0.1957 | 1000.61 ± 0.32
277.15 K, m1 = 0.2937 | 1000.93 ± 0.32
277.15 K, m1 = 0.3933 | 1001.27 ± 0.32
277.15 K, m1 = 0.4953 | 1001.61 ± 0.33
277.15 K, m1 = 0.59 | 1001.93 ± 0.33
277.15 K, m1 = 0.7073 | 1002.35 ± 0.33
277.15 K, m1 = 0.799 | 1002.67 ± 0.33
277.61 K, m1 = 0.09735 | 1000.28 ± 0.32
277.61 K, m1 = 0.2018 | 1000.61 ± 0.32
277.61 K, m1 = 0.3001 | 1000.92 ± 0.32
277.61 K, m1 = 0.3875 | 1001.21 ± 0.32
277.61 K, m1 = 0.4999 | 1001.59 ± 0.33
277.61 K, m1 = 0.5929 | 1001.9 ± 0.33
277.61 K, m1 = 0.694 | 1002.23 ± 0.33
277.61 K, m1 = 0.8027 | 1002.59 ± 0.33
278.12 K, m1 = 0.09735 | 1000.28 ± 0.32
278.12 K, m1 = 0.2018 | 1000.62 ± 0.32
278.12 K, m1 = 0.297 | 1000.92 ± 0.32
278.12 K, m1 = 0.4495 | 1001.43 ± 0.32
278.12 K, m1 = 0.4911 | 1001.58 ± 0.33
278.12 K, m1 = 0.5697 | 1001.85 ± 0.33
278.12 K, m1 = 0.7087 | 1002.34 ± 0.33
278.12 K, m1 = 0.8713 | 1002.91 ± 0.33
278.68 K, m1 = 0.09705 | 1000.26 ± 0.32
278.68 K, m1 = 0.18 | 1000.51 ± 0.32
278.68 K, m1 = 0.2822 | 1000.84 ± 0.32
278.68 K, m1 = 0.3869 | 1001.18 ± 0.32
278.68 K, m1 = 0.4939 | 1001.53 ± 0.33
278.68 K, m1 = 0.5946 | 1001.87 ± 0.33
278.68 K, m1 = 0.702 | 1002.24 ± 0.33
278.68 K, m1 = 0.8002 | 1002.58 ± 0.33

CCCC(N)=O [butanamide] + O
Details | mass density [kg/m3]
275.66 K, m1 = 0.1003 | 1000.06 ± 0.32
275.66 K, m1 = 0.1971 | 1000.2 ± 0.32
275.66 K, m1 = 0.301 | 1000.37 ± 0.32
275.66 K, m1 = 0.4013 | 1000.56 ± 0.32
275.66 K, m1 = 0.4955 | 1000.75 ± 0.32
275.66 K, m1 = 0.6013 | 1000.97 ± 0.32
275.66 K, m1 = 0.695 | 1001.2 ± 0.33
275.66 K, m1 = 0.8012 | 1001.46 ± 0.33
276.14 K, m1 = 0.1021 | 1000.06 ± 0.32
276.14 K, m1 = 0.1961 | 1000.2 ± 0.32
276.14 K, m1 = 0.2967 | 1000.37 ± 0.32
276.14 K, m1 = 0.4955 | 1000.75 ± 0.32
276.14 K, m1 = 0.6013 | 1000.96 ± 0.32
276.14 K, m1 = 0.6982 | 1001.18 ± 0.33
276.14 K, m1 = 0.8012 | 1001.42 ± 0.33
276.14 K, m1 = 0.9855 | 1001.87 ± 0.33
276.61 K, m1 = 0.1009 | 1000.05 ± 0.32
276.61 K, m1 = 0.1973 | 1000.18 ± 0.32
276.61 K, m1 = 0.2967 | 1000.33 ± 0.32
276.61 K, m1 = 0.4013 | 1000.51 ± 0.32
276.61 K, m1 = 0.5977 | 1000.89 ± 0.32
276.61 K, m1 = 0.7003 | 1001.11 ± 0.33
276.61 K, m1 = 0.8012 | 1001.35 ± 0.33
276.61 K, m1 = 0.9976 | 1001.83 ± 0.33
277.15 K, m1 = 0.1021 | 1000.09 ± 0.32
277.15 K, m1 = 0.1961 | 1000.21 ± 0.32
277.15 K, m1 = 0.2967 | 1000.35 ± 0.32
277.15 K, m1 = 0.4955 | 1000.69 ± 0.32
277.15 K, m1 = 0.6013 | 1000.9 ± 0.32
277.15 K, m1 = 0.6982 | 1001.13 ± 0.33
277.15 K, m1 = 0.8012 | 1001.4 ± 0.33
277.15 K, m1 = 0.9855 | 1001.94 ± 0.33
277.61 K, m1 = 0.1009 | 1000.08 ± 0.32
277.61 K, m1 = 0.1973 | 1000.21 ± 0.32
277.61 K, m1 = 0.2967 | 1000.36 ± 0.32
277.61 K, m1 = 0.4013 | 1000.53 ± 0.32
277.61 K, m1 = 0.5977 | 1000.89 ± 0.32
277.61 K, m1 = 0.7003 | 1001.1 ± 0.33
277.61 K, m1 = 0.8024 | 1001.32 ± 0.33
277.61 K, m1 = 0.9976 | 1001.77 ± 0.33
278.12 K, m1 = 0.1076 | 1000.07 ± 0.32
278.12 K, m1 = 0.1971 | 1000.19 ± 0.32
278.12 K, m1 = 0.3283 | 1000.38 ± 0.32
278.12 K, m1 = 0.4191 | 1000.51 ± 0.32
278.12 K, m1 = 0.5074 | 1000.65 ± 0.32
278.12 K, m1 = 0.6233 | 1000.85 ± 0.32
278.12 K, m1 = 0.7379 | 1001.04 ± 0.33
278.12 K, m1 = 0.8761 | 1001.28 ± 0.33
278.68 K, m1 = 0.1003 | 1000.05 ± 0.32
278.68 K, m1 = 0.1971 | 1000.17 ± 0.32
278.68 K, m1 = 0.301 | 1000.31 ± 0.32
278.68 K, m1 = 0.4013 | 1000.46 ± 0.32
278.68 K, m1 = 0.4955 | 1000.62 ± 0.32
278.68 K, m1 = 0.6013 | 1000.81 ± 0.32
278.68 K, m1 = 0.695 | 1001 ± 0.33
278.68 K, m1 = 0.8012 | 1001.23 ± 0.33

CC(N)=O [ethanamide] + O
Details | mass density [kg/m3]
275.66 K, m1 = 0.102 | 1000.47 ± 0.32
275.66 K, m1 = 0.2015 | 1000.96 ± 0.32
275.66 K, m1 = 0.2995 | 1001.42 ± 0.32
275.66 K, m1 = 0.4032 | 1001.9 ± 0.32
275.66 K, m1 = 0.4848 | 1002.29 ± 0.32
275.66 K, m1 = 0.5945 | 1002.81 ± 0.32
275.66 K, m1 = 0.6875 | 1003.24 ± 0.32
275.66 K, m1 = 0.7747 | 1003.64 ± 0.32
276.14 K, m1 = 0.09682 | 1000.43 ± 0.32
276.14 K, m1 = 0.2023 | 1000.93 ± 0.32
276.14 K, m1 = 0.3049 | 1001.42 ± 0.32
276.14 K, m1 = 0.4077 | 1001.91 ± 0.32
276.14 K, m1 = 0.5003 | 1002.35 ± 0.32
276.14 K, m1 = 0.6016 | 1002.82 ± 0.32
276.14 K, m1 = 0.7037 | 1003.3 ± 0.32
276.14 K, m1 = 0.8092 | 1003.79 ± 0.32
276.61 K, m1 = 0.1016 | 1000.37 ± 0.32
276.61 K, m1 = 0.1972 | 1000.9 ± 0.32
276.61 K, m1 = 0.299 | 1001.39 ± 0.32
276.61 K, m1 = 0.4078 | 1001.9 ± 0.32
276.61 K, m1 = 0.4957 | 1002.32 ± 0.32
276.61 K, m1 = 0.6048 | 1002.83 ± 0.32
276.61 K, m1 = 0.6858 | 1003.21 ± 0.32
276.61 K, m1 = 0.8092 | 1003.78 ± 0.32
277.15 K, m1 = 0.09682 | 1000.43 ± 0.32
277.15 K, m1 = 0.2023 | 1000.93 ± 0.32
277.15 K, m1 = 0.3049 | 1001.41 ± 0.32
277.15 K, m1 = 0.4077 | 1001.88 ± 0.32
277.15 K, m1 = 0.5003 | 1002.32 ± 0.32
277.15 K, m1 = 0.6016 | 1002.8 ± 0.32
277.15 K, m1 = 0.7037 | 1003.28 ± 0.32
277.15 K, m1 = 0.8092 | 1003.77 ± 0.32
277.61 K, m1 = 0.1016 | 1000.45 ± 0.32
277.61 K, m1 = 0.1972 | 1000.91 ± 0.32
277.61 K, m1 = 0.299 | 1001.38 ± 0.32
277.61 K, m1 = 0.4078 | 1001.89 ± 0.32
277.61 K, m1 = 0.4957 | 1002.29 ± 0.32
277.61 K, m1 = 0.6048 | 1002.79 ± 0.32
277.61 K, m1 = 0.6858 | 1003.16 ± 0.32
277.61 K, m1 = 0.8092 | 1003.73 ± 0.32
278.12 K, m1 = 0.1016 | 1000.43 ± 0.32
278.12 K, m1 = 0.1972 | 1000.88 ± 0.32
278.12 K, m1 = 0.299 | 1001.35 ± 0.32
278.12 K, m1 = 0.4078 | 1001.85 ± 0.32
278.12 K, m1 = 0.4957 | 1002.27 ± 0.32
278.12 K, m1 = 0.6048 | 1002.77 ± 0.32
278.12 K, m1 = 0.6858 | 1003.15 ± 0.32
278.12 K, m1 = 0.8092 | 1003.73 ± 0.32
278.68 K, m1 = 0.102 | 1000.43 ± 0.32
278.68 K, m1 = 0.2015 | 1000.9 ± 0.32
278.68 K, m1 = 0.2995 | 1001.36 ± 0.32
278.68 K, m1 = 0.4032 | 1001.83 ± 0.32
278.68 K, m1 = 0.4848 | 1002.21 ± 0.32
278.68 K, m1 = 0.5945 | 1002.7 ± 0.32
278.68 K, m1 = 0.6875 | 1003.12 ± 0.32
278.68 K, m1 = 0.7747 | 1003.51 ± 0.32
